In EP0584797A2, “Novel cephalosporin compounds and processes for the preparation thereof” (LUCKY LTD., priority 1992, dated 1994):
Values after ≈ are worked out from the molar mass of the structure shown.

Key:
Assay in all cases: minimal inhibitory concentration, two-fold agar dilution
Format in all cases: cell-based
[1] = system: Acinetobacter calcoaceticus ATCC 15437; settings: ATCC15437, Muller-Hinton agar, 37°C, 20 hours, read-out: MIC values against the standard strains
Method in brief: (§1)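 Compounds were serially diluted two-fold into Mueller-Hinton agar, and each plate was spot-inoculated with the test strain at 10⁷ CFU per ml. Plates were incubated at 37°C for 20 hours before MIC values were read.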

[2] = system: Bacillus cereus ATCC 11778; settings: ATCC11778, Muller-Hinton agar, 37°C, 20 hours, read-out: MIC values against the standard strains
Method in brief: as §1

[3] = system: Bacillus megaterium ATCC 9885; settings: Priestia megaterium, ATCC9885; Muller-Hinton agar; 37°C; 20 hours; read-out: MIC values against the standard strains
Method in brief: as §1

[4] = system: Citrobacter freundii ATCC 8090; settings: ATCC8090, Muller-Hinton agar, 37°C, 20 hours, read-out: MIC values against the standard strains
Method in brief: as §1

[5] = system: Enterobacter aerogenes ATCC 29751; settings: Klebsiella aerogenes, ATCC29751; Muller-Hinton agar; 37°C; 20 hours; read-out: MIC values against the standard strains
Method in brief: as §1

[6] = system: Enterobacter cloacae ATCC 27508; settings: ATCC27508, Muller-Hinton agar, 37°C, 20 hours, read-out: MIC values against the standard strains
Method in brief: as §1

[7] = system: Escherichia coli ATCC 10536; settings: ATCC10536, Muller-Hinton agar, 37°C, 20 hours, read-out: MIC values against the standard strains
Method in brief: as §1

[8] = system: Escherichia coli ATCC 25922; settings: ATCC25922, Muller-Hinton agar, 37°C, 20 hours, read-out: MIC values against the standard strains
Method in brief: as §1

[9] = system: Klebsiella pneumoniae ATCC 10031; settings: ATCC10031, Muller-Hinton agar, 37°C, 20 hours, read-out: MIC values against the standard strains
Method in brief: as §1

[10] = system: Micrococcus luteus ATCC 9341; settings: ATCC9341, Muller-Hinton agar, 37°C, 20 hours, read-out: MIC values against the standard strains
Method in brief: as §1

[11] = system: Morganella morganii ATCC 8076h; settings: ATCC8076H, Muller-Hinton agar, 37°C, 20 hours, read-out: MIC values against the standard strains
Method in brief: as §1

[12] = system: Proteus mirabilis ATCC 25933; settings: ATCC25933, Muller-Hinton agar, 37°C, 20 hours, read-out: MIC values against the standard strains
Method in brief: as §1

[13] = system: Proteus vulgaris ATCC 6059; settings: ATCC6059, Muller-Hinton agar, 37°C, 20 hours, read-out: MIC values against the standard strains
Method in brief: as §1

[14] = system: Providencia rettgeri ATCC 9250; settings: ATCC9250, Muller-Hinton agar, 37°C, 20 hours, read-out: MIC values against the standard strains
Method in brief: as §1

[15] = system: Pseudomonas aeruginosa ATCC 10145; settings: ATCC10145, Muller-Hinton agar, 37°C, 20 hours, read-out: MIC values against the standard strains
Method in brief: as §1

[16] = system: Pseudomonas aeruginosa ATCC 25619; settings: ATCC25619, Muller-Hinton agar, 37°C, 20 hours, read-out: MIC values against the standard strains
Method in brief: as §1

[17] = system: Pseudomonas aeruginosa ATCC 27853; settings: ATCC27853, Muller-Hinton agar, 37°C, 20 hours, read-out: MIC values against the standard strains
Method in brief: as §1

[18] = system: Salmonella typhimurium ATCC 14028; settings: Salmonella enterica; Muller-Hinton agar; 37°C; 20 hours; read-out: MIC values against the standard strains
Method in brief: as §1

[19] = system: Serratia marcescens ATCC 27117; settings: ATCC27117, Muller-Hinton agar, 37°C, 20 hours, read-out: MIC values against the standard strains
Method in brief: as §1

[20] = system: Shigella flexneri ATCC 11836; settings: ATCC11836, Muller-Hinton agar, 37°C, 20 hours, read-out: MIC values against the standard strains
Method in brief: as §1

[21] = system: Shigella sonnei ATCC 11060; settings: ATCC11060, Muller-Hinton agar, 37°C, 20 hours, read-out: MIC values against the standard strains
Method in brief: as §1

[22] = system: Staphylococcus aureus ATCC 10537; settings: ATCC10537, Muller-Hinton agar, 37°C, 20 hours, read-out: MIC values against the standard strains
Method in brief: as §1

[23] = system: Staphylococcus aureus ATCC 6538p; settings: ATCC6538P, Muller-Hinton agar, 37°C, 20 hours, read-out: MIC values against the standard strains
Method in brief: as §1

[24] = system: Staphylococcus epidermidis ATCC 12228; settings: ATCC12228, Muller-Hinton agar, 37°C, 20 hours, read-out: MIC values against the standard strains
Method in brief: as §1

[25] = system: Streptococcus faecalis ATCC 29212; settings: Enterococcus faecalis, ATCC29212; Muller-Hinton agar; 37°C; 20 hours; read-out: MIC values against the standard strains
Method in brief: as §1

Structure (SMILES) | MIC [1] | MIC [2] | MIC [3] | MIC [4] | MIC [5] | MIC [6] | MIC [7] | MIC [8] | MIC [9] | MIC [10] | MIC [11] | MIC [12] | MIC [13] | MIC [14] | MIC [15] | MIC [16] | MIC [17] | MIC [18] | MIC [19] | MIC [20] | other results
CCO/N=C(\C(=O)N[C@@H]1C(=O)N2C(C(=O)[O-])=C(CSc3nc(N)c(N)c(N)[n+]3CC)CS[C@H]12)c1nsc(N)n1 [Example 15, 7-[(Z)-2-(5-amino-1,2,4-thiadiazol-3-yl)-2-(ethoxyimino)acetamido]-3-(4,5,6-triamino-1-ethylpyrimidinium-2-yl)thiomethyl-3-cephem-4-carboxylate] | 4 µg/mL (≈ 6.71 µM) | 32 µg/mL (≈ 53.7 µM) | 0.13 µg/mL (≈ 0.218 µM) | 0.5 µg/mL (≈ 0.839 µM) | 0.063 µg/mL (≈ 0.106 µM) | 0.031 µg/mL (≈ 0.052 µM) | 0.063 µg/mL (≈ 0.106 µM) | 0.063 µg/mL (≈ 0.106 µM) | 0.016 µg/mL (≈ 0.0269 µM) | 0.063 µg/mL (≈ 0.106 µM) | ≤ 0.008 µg/mL | 1 µg/mL (≈ 1.68 µM) | 1 µg/mL (≈ 1.68 µM) | ≤ 0.008 µg/mL | 8 µg/mL (≈ 13.4 µM) | 1 µg/mL (≈ 1.68 µM) | 2 µg/mL (≈ 3.36 µM) | 0.5 µg/mL (≈ 0.839 µM) | 0.5 µg/mL (≈ 0.839 µM) | 0.25 µg/mL (≈ 0.42 µM) | MIC [21]: 0.25 µg/mL (≈ 0.42 µM); MIC [22]: 0.25 µg/mL (≈ 0.42 µM); MIC [23]: 0.5 µg/mL (≈ 0.839 µM); MIC [24]: 0.25 µg/mL (≈ 0.42 µM); MIC [25]: 32 µg/mL (≈ 53.7 µM)
CCO/N=C(\C(=O)N[C@@H]1C(=O)N2C(C(=O)[O-])=C(CSc3nc(N)cc[n+]3C)CS[C@H]12)c1nsc(N)n1 [Example 6, 7-[(Z)-2-(5-amino-1,2,4-thiadiazol-3-yl)-2-(ethoxyimino)acetamido]-3-(4-amino-1-methylpyrimidinium-2-yl)thiomethyl-3-cephem-4-carboxylate] | 1 µg/mL (≈ 1.81 µM) | 16 µg/mL (≈ 29 µM) | 0.063 µg/mL (≈ 0.114 µM) | 0.063 µg/mL (≈ 0.114 µM) | 0.016 µg/mL (≈ 0.029 µM) | 0.063 µg/mL (≈ 0.114 µM) | 0.063 µg/mL (≈ 0.114 µM) | 0.063 µg/mL (≈ 0.114 µM) | ≤ 0.008 µg/mL | 0.063 µg/mL (≈ 0.114 µM) | ≤ 0.008 µg/mL | 0.5 µg/mL (≈ 0.906 µM) | 0.5 µg/mL (≈ 0.906 µM) | ≤ 0.008 µg/mL | 4 µg/mL (≈ 7.25 µM) | 0.5 µg/mL (≈ 0.906 µM) | 2 µg/mL (≈ 3.63 µM) | 0.5 µg/mL (≈ 0.906 µM) | 0.5 µg/mL (≈ 0.906 µM) | 0.063 µg/mL (≈ 0.114 µM) | MIC [21]: 0.25 µg/mL (≈ 0.453 µM); MIC [22]: 0.13 µg/mL (≈ 0.236 µM); MIC [23]: 0.13 µg/mL (≈ 0.236 µM); MIC [24]: 0.13 µg/mL (≈ 0.236 µM); MIC [25]: 32 µg/mL (≈ 58 µM)
C[n+]1ccc(N)nc1SCC1=C(C(=O)[O-])N2C(=O)[C@@H](NC(=O)/C(=N\OC(C)(C)C(=O)O)c3csc(N)n3)[C@H]2SC1 [Example 2, 7-[(Z)-2-(aminothiazol-4-yl)-2-(carboxyprop-2-oxyimino)acetamido]-3-(4-amino-1-methylpyrimidinium-2-yl)thiomethyl-3-cephem-4-carboxylate] | 4 µg/mL (≈ 6.57 µM) | 64 µg/mL (≈ 105 µM) | 0.25 µg/mL (≈ 0.411 µM) | 0.031 µg/mL (≈ 0.0509 µM) | 1 µg/mL (≈ 1.64 µM) | ≤ 0.008 µg/mL | 0.031 µg/mL (≈ 0.0509 µM) | 0.031 µg/mL (≈ 0.0509 µM) | 0.031 µg/mL (≈ 0.0509 µM) | 0.25 µg/mL (≈ 0.411 µM) | ≤ 0.008 µg/mL | 0.031 µg/mL (≈ 0.0509 µM) | 0.063 µg/mL (≈ 0.104 µM) | ≤ 0.008 µg/mL | 2 µg/mL (≈ 3.29 µM) | 1 µg/mL (≈ 1.64 µM) | 1 µg/mL (≈ 1.64 µM) | 0.13 µg/mL (≈ 0.214 µM) | 0.063 µg/mL (≈ 0.104 µM) | 0.016 µg/mL (≈ 0.0263 µM) | MIC [21]: 0.063 µg/mL (≈ 0.104 µM); MIC [22]: 2 µg/mL (≈ 3.29 µM); MIC [23]: 4 µg/mL (≈ 6.57 µM); MIC [24]: 2 µg/mL (≈ 3.29 µM); MIC [25]: > 128 µg/mL
CO/N=C(\C(=O)N[C@@H]1C(=O)N2C(C(=O)[O-])=C(CSc3nc(N)c(N)c(N)[n+]3C)CS[C@H]12)c1csc(N)n1 [Example 7, 7-[(Z)-2-(2-aminothiazol-4-yl)-2-(methoxyimino)acetamido]-3-(4,5,6-triamino-1-methylpyrimidinium-2-yl)thiomethyl-3-cephem-4-carboxylate] | 4 µg/mL (≈ 7.06 µM) | 16 µg/mL (≈ 28.2 µM) | 0.13 µg/mL (≈ 0.229 µM) | 0.063 µg/mL (≈ 0.111 µM) | ≤ 0.008 µg/mL | 0.063 µg/mL (≈ 0.111 µM) | 0.063 µg/mL (≈ 0.111 µM) | 0.063 µg/mL (≈ 0.111 µM) | 0.016 µg/mL (≈ 0.0282 µM) | 0.063 µg/mL (≈ 0.111 µM) | ≤ 0.008 µg/mL | 0.13 µg/mL (≈ 0.229 µM) | 0.13 µg/mL (≈ 0.229 µM) | ≤ 0.008 µg/mL | 32 µg/mL (≈ 56.5 µM) | 4 µg/mL (≈ 7.06 µM) | 32 µg/mL (≈ 56.5 µM) | 0.13 µg/mL (≈ 0.229 µM) | 0.13 µg/mL (≈ 0.229 µM) | 0.031 µg/mL (≈ 0.0547 µM) | MIC [21]: 0.13 µg/mL (≈ 0.229 µM); MIC [22]: 0.13 µg/mL (≈ 0.229 µM); MIC [23]: 0.13 µg/mL (≈ 0.229 µM); MIC [24]: 0.13 µg/mL (≈ 0.229 µM); MIC [25]: 128 µg/mL (≈ 226 µM)
CCO/N=C(\C(=O)N[C@@H]1C(=O)N2C(C(=O)[O-])=C(CSc3nc(N)cc(OC)[n+]3C)CS[C@H]12)c1csc(N)n1 [Example 18, 7-[(Z)-2-(2-aminothiazol-4-yl)-2-(ethoxyimino)acetamido]-3-(4-amino-6-methoxy-1-methylpyrimidinium-2-yl)thiomethyl-3-cephem-4-carboxylate] | 8 µg/mL (≈ 13.8 µM) | 32 µg/mL (≈ 55.1 µM) | 0.13 µg/mL (≈ 0.224 µM) | 0.13 µg/mL (≈ 0.224 µM) | 1 µg/mL (≈ 1.72 µM) | ≤ 0.008 µg/mL | 0.13 µg/mL (≈ 0.224 µM) | 0.25 µg/mL (≈ 0.431 µM) | ≤ 0.008 µg/mL | 0.016 µg/mL (≈ 0.0276 µM) | ≤ 0.008 µg/mL | 0.5 µg/mL (≈ 0.861 µM) | 0.5 µg/mL (≈ 0.861 µM) | ≤ 0.008 µg/mL | 16 µg/mL (≈ 27.6 µM) | 2 µg/mL (≈ 3.44 µM) | 16 µg/mL (≈ 27.6 µM) | 0.5 µg/mL (≈ 0.861 µM) | 0.5 µg/mL (≈ 0.861 µM) | 0.13 µg/mL (≈ 0.224 µM) | MIC [21]: 0.25 µg/mL (≈ 0.431 µM); MIC [22]: 0.25 µg/mL (≈ 0.431 µM); MIC [23]: 0.5 µg/mL (≈ 0.861 µM); MIC [24]: 0.13 µg/mL (≈ 0.224 µM); MIC [25]: 16 µg/mL (≈ 27.6 µM)
